Entries after “also recorded” stand apart in the source; their conditions may differ.
Tests used:
HMGCR pathway [1] = test: Microarray expression profiling of aplexone-treated embryos (Affymetrix Zebrafish GeneChip); type: in vivo; details: 10 μM, RNA at 30 hpf
Description: Embryos at the 5-somite stage were treated with 0.4% DMSO (control) or 10 μM of aplexone in 0.4% DMSO and total RNA was isolated using the RNAeasy micro kit (Qiagen) at 30 hpf. Microarray analysis was performed in triplicate using the Affymetrix Zebrafish GeneChip, representing 15,617 genes. Synthesis and labeling of antisense RNA was performed as recommended by the array manufacturer using kits from Invitrogen for double-stranded cDNA synthesis, Enzo Life Sciences for transcription and labeling of antisense RNA and Affymetrix for probe purification and hybridization controls. Microarray hybridization data were analyzed using scripts written in the statistical programming language R (Team, 2009). Differentially expressed genes (DEGs) were identified using a linear model and multiple testing correction from the limma package (Smyth, 2004). The expression values were obtained using the robust multi array algorithm (Irizarry et al., 2003).

HMGCR pathway [2] = test: Cholesterol assay in embryo lysate (Amplex Red); type: in vivo, zebrafish
Description: The yolk was removed from embryos by vortexing in calcium-free Ringer's solution with 1 mM EDTA at 4° C. The embryos were then pelleted and washed with fresh calcium free Ringer's solution 5 times before being resuspended in cholesterol assay reaction buffer and were then lysed by sonication using a Sonifier 450 (Branson). Cholesterol levels in the embryo lysate were measured with an Amplex Red Cholesterol Assay Kit (Invitrogen) and Flex station II (Bucher Biotec). The total protein concentration of the embryo lysate was measured using a DC protein assay (Bio-Rad Laboratories) and SpectraMax plus (Molecular Devices).

cardiomyocytes = test: Cardiomyocyte migration / heart tube formation in Tg(myl7:GFP) embryos; type: in vivo, zebrafish; details: 30 μM aplexone
Description: A,B,C, Overall phenotype of control and aplexone-treated embryos at 30 hpf. A′,B′,C′, Vasculature in trunk. […] D-E, Germ cells in control and aplexone treated embryos at 24 hpf were detected by in situ hybridization using the nanos probe. F, The percentage of embryos with ectopic primordial germ cells in control (n=26), 5 μM (n=13), and 10 μM (n=14) aplexone-treated embryos. […] I, The percentage of embryos with cardia bifida in control (n=16) and 10 μM-(n=17), 20 μM-(n=17) and 30 μM-(n=18) aplexone-treated embryos.

[3] = system: caudal vein endothelial cells; test: Caudal vein endothelial cell migration, time-lapse confocal imaging; type: in vivo, zebrafish; details: 10 μM aplexone
Description: A-B, Representative images of the caudal vein of control (A) and 10 μM aplexone-treated embryos (B) at 30 hpf. Images were overlaid with the endothelial cell migration path inferred from time-lapse confocal movies taken from 25 hpf to 30 hpf. The migration of caudal vein endothelial cells was traced using the Manual Tracking feature of ImageJ and the positions of ISV sprouting points were used as references to adjust for the growth of embryos. C, The distance of endothelial cell migration in caudal vein of control and aplexone-treated Tg(kdrl:GFP) embryos. Asterisk indicates p<0.05. (D) The window of application of aplexone. Grey bars represent the developmental stages during which Tg(kdrl:GFP) embryos were exposed to 10 μM aplexone and the caudal vein phenotype was analyzed at 48 hpf. […] A “−” indicates the formation of normal caudal vein plexus.
Images of GFP expression in Tg(kdrl:GFP) embryos were acquired using a Zeiss SV-11 epifluorescence microscope. Confocal images were acquired using a Carl Zeiss Laser Scanning Systems LSM510 equipped with 20× air, 20× water or 40× water immersion objectives. For single time point confocal images, embryos were anesthetized with 0.01% tricaine and embedded in 1% agarose. […] The images obtained were analyzed using the Zeiss LSM Image Brower version 4 and Image J. […]

[4] = system: Tg(kdrl:GFP) zebrafish embryos; test: Caudal vein plexus (CVP) formation / venous angiogenesis in Tg(kdrl:GFP) zebrafish embryos; type: in vivo
Source text: Images of GFP expression in Tg(kdrl:GFP) embryos were acquired using a Zeiss SV-11 epifluorescence microscope. Confocal images were acquired using a Carl Zeiss Laser Scanning Systems LSM510 equipped with 20× air, 20× water or 40× water immersion objectives. For single time point confocal images, embryos were anesthetized with 0.01% tricaine and embedded in 1% agarose. When capturing time-lapse confocal movies, embryos were mounted in 3.5% methylcellulose (Sigma-Aldrich) and imaged for 5 hrs on a heated stage at 28.5° C. The images obtained were analyzed using the Zeiss LSM Image Brower version 4 and Image J.
A synthetic chemical library containing 168 compounds (Castellano et al., 2007) and 300 chemicals from Biomol International LP, consisting of 72 ion channel inhibitors (Cat No. 2805), 84 kinase/phosphatase inhibitors (Cat No. 2831), 84 orphan ligands (Cat No. 2825), and 60 endocannabinoids (Cat No. 2801) were screened. The synthetic small molecules were prepared through nucleophilic phosphine catalysis of allenoates (Zhu et al., 2003). Four Tg(kdrl:GFP) embryos were placed into each well of 96-well plates containing a 10 μM solution of each chemical compound dissolved in embryo buffer with 0.1% DMSO. The embryos were raised at 28.5° C. and examined for defects in blood vessel development at 1 and 2 days after treatment. Standard parameters such as numbers of somites and head to body angle were used to determine the stages of zebrafish embryos (Kimmel et al., 1995).
Aplexone treatment described in this study was carried out at a concentration of 10 μM starting at 10 hpf unless otherwise specified.
8 ng tnnt2 MO (Gene Tools) (Sehnert et al., 2002), 3 nl of 4 mM GGTI-2133 (Calbiochem), 3 nl of 5 mM L744,832 (Calbiochem) and 1 nl of 2M mevalonate (Sigma-Aldrich) were injected into 1-2 cell stage embryos.
The library of 168 compounds^24 prepared through the nucleophilic phosphine catalysis of allenes were screened using Tg(kdrl:GFP) zebrafish. Four embryos were placed in each well of 96-well plates containing a 10 uM solution of each chemical compound dissolved in embryo buffer with 0.1% DMSO. The embryos were raised at 28.5° C. and defects in blood vessel development were examined at 1 and 2 days after fertilization.

SMILES: CC(=O)C1=CCC(c2ccccc2)N(S(=O)(=O)c2ccc(C)cc2)C1 (stereo not shown) [aplexone]
- fold change 3-hydroxy-3-methylglutaryl-Coenzyme A synthase 1 (HMGCS) (HMGCR pathway [1]): 2.0 fold
- fold change Krueppel-like factor 11 (TIEG-2) (HMGCR pathway [1]): 2.1 fold
- fold change carbonyl reductase 1-like (HMGCR pathway [1]): 2.1 fold
- fold change coronin, actin binding protein, 1A (HMGCR pathway [1]): −2.1 fold
- fold change cytochrome P450, family 51 (CYP51) (HMGCR pathway [1]): 2.8 fold
- fold change farnesyl diphosphate synthetase (FDPS) (HMGCR pathway [1]): 2.0 fold
- fold change fatty acid desaturase 2 (HMGCR pathway [1]): 2.4 fold
- fold change glutamate dehydrogenase 1a (HMGCR pathway [1]): 2.2 fold
- fold change glutathione S-transferase (HMGCR pathway [1]): 3.2 fold
- fold change glutathione reductase like (HMGCR pathway [1]): 2.2 fold
- fold change insulin induced gene 1 (INSIG) (HMGCR pathway [1]): 2.6 fold
- fold change insulin-like growth factor binding protein 1 (HMGCR pathway [1]): 2.1 fold
- fold change lymphocyte cytosolic plastin 1 (HMGCR pathway [1]): −2.7 fold
- fold change lysozyme (HMGCR pathway [1]): −2.7 fold
- fold change myosin regulatory light chain interacting protein (HMGCR pathway [1]): −2.1 fold
- fold change nephrosin (HMGCR pathway [1]): −2.4 fold
- fold change selenoprotein W (HMGCR pathway [1]): 3.1 fold
- fold change sterol-C4-methyl oxidase-like (SC4MOL) (HMGCR pathway [1]): 2.0 fold
- fold change sulfotransferase (HMGCR pathway [1]): 3.0 fold
- efficiency of cholesterol reduction compared with atorvastatin (HMGCR pathway [2]; higher concentration (40 uL)): more efficient
- efficiency of cholesterol reduction compared with atorvastatin (HMGCR pathway [2]; lower concentration (10 uL)): as efficient as atorvastatin
- embryonic cholesterol levels (HMGCR pathway [2]; relative to 0.4% DMSO control): reduced embryonic cholesterol levels to a comparable degree as treatment with atorvastatin; also recorded: reduce cholesterol level significantly
- fusion of cardiac primordia / cardiomyocyte migration to midline (cardiomyocytes): defects in the fusion of the bilaterally positioned cardiac primordia; also recorded: fail to migrate to midline
- maturation of caudal vein EC filopodia into angiogenic sprouts [3]: never matured into angiogenic sprouts
- average EC migration distance during CVP formation ([3]; between 25 hpf and 30 hpf): 35 μm
- CVP formation at suboptimal level ([4]; 2 μM single agent): normal CVP
- formation of the CVP ([4]; 10 μM aplexone from 10 hpf): severely defective
- secondary ISVs (venous-derived sprouts) ([4]; 10 μM from 10 hpf, 2-day-old embryos): absent

Source: patent publication US9084782B2, “Chemical inhibitors of cholesterol biosynthesis and venous angiogenesis” (The Regents of the University of California, priority 2011, dated 2015)
